Results: ChEMBL document CHEMBL4340502, “Anti-biofilm and anti-adherence properties of novel cyclic dipeptides against oral pathogens” (Bioorg Med Chem, 2019)
≈ marks a conversion by molar mass, not a printed value. Calls of active or inactive are those of the source. Unless noted, no cut-off for these calls is given here.

Tests used:
Streptococcus mutans [1] = experiment: Inhibition of planktonic growth of Streptococcus mutans ATCC 25175 up to 96 ug/mL after 24 hrs relative to control; assay type: organism-based
Escherichia coli = experiment: Growth inhibition of Escherichia coli ATCC 15939 incubated for 24 hrs under aerobic condition by microdilution method; assay type: organism-based
Listeria monocytogenes = experiment: Growth inhibition of Listeria monocytogenes WSLC 1001 incubated for 24 hrs under aerobic condition by microdilution method; assay type: organism-based; conditions: in vitro
Staphylococcus aureus = experiment: Growth inhibition of Staphylococcus aureus ATCC 6538 incubated for 24 hrs under aerobic condition by microdilution method; assay type: organism-based; conditions: in vitro
Porphyromonas gingivalis = experiment: Antibiofilm activity against Porphyromonas gingivalis ATCC 33277 assessed as inhibition of biofilm formation up to 96 ug/mL after 24 hrs by crystal violet staining based assay; assay type: functional, organism-based
Fusobacterium nucleatum = experiment: Antibiofilm activity against Fusobacterium nucleatum ATCC 25586 assessed as inhibition of biofilm formation up to 96 ug/mL after 24 hrs by crystal violet staining based assay; assay type: functional, organism-based
[2] = system: Limosilactobacillus fermentum; experiment: Antibiofilm activity against Lactobacillus fermentum LacB1 assessed as inhibition of biofilm formation up to 96 ug/mL after 24 hrs by crystal violet staining based assay; assay type: functional, organism-based
Streptococcus mutans [3] = experiment: Antibiofilm activity against Streptococcus mutans ATCC 25175 assessed as inhibition of biofilm formation up to 96 ug/mL after 24 hrs by crystal violet staining-based assay; assay type: functional, organism-based
Pseudomonas aeruginosa = experiment: Growth inhibition of Pseudomonas aeruginosa ATCC 10145 incubated for 24 hrs under aerobic condition by microdilution method; assay type: organism-based
Actinomyces naeslundii [4] = experiment: Antibiofilm activity against Actinomyces naeslundii ATCC 49340 assessed as prevention of homogenous biofilm formation at 96 ug/mL after 24 hrs by crystal violet staining-based assay; assay type: functional, organism-based
Candida albicans [5] = experiment: Growth inhibition of Candida albicans ATCC 28366 up to 96 ug/ml measured after 24 hrs by microdilution method; assay type: organism-based; conditions: in vitro
Candida albicans [6] = experiment: Disruption of Candida albicans ATCC 28366 pre-formed mature biofilm assessed as reduction in biofilm biomass at 96 ug/mL after 12 hrs by crystal violet staining based assay; assay type: functional, organism-based
Candida albicans [7] = experiment: Antibiofilm activity against Candida albicans ATCC 28366 assessed as reduction of biofilm formation at 24 to 48 ug/mL after 24 hrs by crystal violet staining based assay; assay type: functional, organism-based
Streptococcus mutans [8] = experiment: Antibiofilm activity against Streptococcus mutans ATCC 25175 assessed as inhibition of biofilm formation at 6 to 12 ug/mL after 24 hrs by crystal violet staining-based assay; assay type: functional, organism-based
Streptococcus mutans [9] = experiment: Antiadherence activity in FITC-labelled Streptococcus mutans ATCC 25175 assessed as reduction in bacterial adhesion to hydroxylapatite up to 96 ug/mL after 1 hr fluorescence assay; assay type: functional, organism-based
Streptococcus mutans [10] = experiment: Disruption of Streptococcus mutans ATCC 25175 pre-formed mature biofilm assessed as reduction in biofilm biomass at 96 ug/mL after 12 hrs by crystal violet staining based assay; assay type: functional, organism-based
Candida albicans [11] = experiment: Antiadherence activity against FITC-labelled Candida albicans ATCC 28366 assessed as reduction in bacterial adhesion to hydroxylapatite up to 96 ug/mL after 1 hr by fluorescence assay relative to control; assay type: functional
Candida albicans [12] = experiment: Antibiofilm activity against Candida albicans ATCC 28366 assessed as reduction of biofilm formation after 24 hrs by crystal violet staining based assay; assay type: functional, organism-based
Actinomyces naeslundii [13] = experiment: Antibiofilm activity against Actinomyces naeslundii ATCC 49340 assessed as reduction of biofilm formation by visual analysis; assay type: functional, organism-based
Actinomyces naeslundii [14] = experiment: Antibiofilm activity against Actinomyces naeslundii ATCC 49340 assessed as inhibition of bacterial adhesion up to 96 ug/mL after 24 hrs by crystal violet staining based assay; assay type: functional, organism-based
Actinomyces naeslundii [15] = experiment: Antibiofilm activity against Actinomyces naeslundii ATCC 49340 assessed as reduction of biofilm formation at 48 ug/mL after 24 hrs by crystal violet staining based assay; assay type: functional, organism-based
Actinomyces naeslundii [16] = experiment: Antibiofilm activity against Actinomyces naeslundii ATCC 49340 assessed as prevention of homogenous biofilm formation up to 96 ug/mL after 24 hrs by crystal violet staining based assay; assay type: functional, organism-based
[17] = Solubility of the compound in water; assay type: physicochemical; conditions: buffer
Enterococcus faecalis = experiment: Antimicrobial activity against vancomycin-resistant Enterococcus faecalis measured after 24 hrs by agar-dilution method; assay type: functional

| SMILES | growth inhibition (GI) (Streptococcus mutans [1]) | MIC (Escherichia coli) [µg/mL] | MIC (Listeria monocytogenes) [µg/mL] | MIC (Staphylococcus aureus) [µg/mL] | inhibition (Porphyromonas gingivalis) | inhibition (Fusobacterium nucleatum) | inhibition [2] | inhibition (Streptococcus mutans [3]) | MIC (Pseudomonas aeruginosa) [µg/mL] | further results |
| --- | --- | --- | --- | --- | --- | --- | --- | --- | --- | --- |
| O=C1N[C@H](Cc2ccccc2)C(=O)N[C@@H]1Cc1ccccc1 | Non-Toxic | > 192 | > 192 | > 192 | inactive | inactive | inactive | inactive | > 192 | – |
| O=C1N[C@@H](Cc2ccc(OCc3ccccc3)cc2)C(=O)N[C@H]1Cc1ccccc1 | Non-Toxic | > 192 | > 192 | > 192 | inactive | inactive | inactive | Active | > 192 | Activity (Actinomyces naeslundii [4]): inactive; growth inhibition (GI) (Candida albicans [5]): Non-Toxic; Activity (Candida albicans [6]): inactive; Activity (Candida albicans [7]): Active; Activity (Streptococcus mutans [8]): Active; Activity (Streptococcus mutans [9]): Active; Activity (Streptococcus mutans [10]): inactive; Activity (Candida albicans [11]): Active; Activity (Candida albicans [12]): Dose-dependent effect |
| O=C1N[C@H](Cc2ccc(OCc3ccccc3)cc2)C(=O)N[C@@H]1Cc1ccccc1 | Non-Toxic | > 192 | > 192 | > 192 | inactive | inactive | inactive | Active | > 192 | growth inhibition (GI) (Candida albicans [5]): Non-Toxic; Activity (Candida albicans [6]): inactive; Activity (Candida albicans [7]): Active; inhibition (Actinomyces naeslundii [13]): Active; inhibition (Actinomyces naeslundii [14]): inactive; Activity (Streptococcus mutans [8]): Active; Activity (Streptococcus mutans [9]): Active; Activity (Streptococcus mutans [10]): inactive; inhibition (Actinomyces naeslundii [15]): Active; Activity (Candida albicans [11]): Active; Activity (Actinomyces naeslundii [16]): Active; Activity (Candida albicans [12]): Dose-dependent effect |
| O=C1N[C@@H](Cc2ccc(OCc3ccccc3)cc2)C(=O)N[C@H]1Cc1ccc(OCc2ccccc2)cc1 | Non-Toxic | > 192 | > 192 | > 192 | inactive | inactive | inactive | Active | > 192 | growth inhibition (GI) (Candida albicans [5]): Non-Toxic; Activity (Candida albicans [6]): inactive; Activity (Candida albicans [7]): Active; inhibition (Actinomyces naeslundii [13]): Active; inhibition (Actinomyces naeslundii [14]): inactive; Activity (Streptococcus mutans [8]): Active; Activity (Streptococcus mutans [9]): Active; Activity (Streptococcus mutans [10]): inactive; inhibition (Actinomyces naeslundii [15]): Active; Activity (Candida albicans [11]): Active; Activity (Actinomyces naeslundii [16]): Active; Activity (Candida albicans [12]): Dose-dependent effect |
| O=C1N[C@@H](Cc2ccccc2)C(=O)N[C@H]1Cc1ccccc1 | Non-Toxic | > 192 | > 192 | > 192 | inactive | inactive | inactive | inactive | > 192 | – |
| O=C1N[C@H](Cc2ccccc2)C(=O)N[C@H]1Cc1ccccc1 | Non-Toxic | > 192 | > 192 | > 192 | inactive | inactive | inactive | inactive | > 192 | – |
| O=C1N[C@H](Cc2ccc(OCc3ccccc3)cc2)C(=O)N[C@H]1Cc1ccccc1 | Non-Toxic | > 192 | > 192 | > 192 | inactive | inactive | inactive | inactive | > 192 | solubility [17]: Insoluble |
| O=C1N[C@H](Cc2ccc(OCc3ccccc3)cc2)C(=O)N[C@@H]1Cc1ccc(OCc2ccccc2)cc1 | Non-Toxic | > 192 | > 192 | > 192 | inactive | inactive | inactive | Active | > 192 | growth inhibition (GI) (Candida albicans [5]): Non-Toxic; Activity (Candida albicans [6]): inactive; Activity (Candida albicans [7]): Active; inhibition (Actinomyces naeslundii [13]): Active; inhibition (Actinomyces naeslundii [14]): inactive; Activity (Streptococcus mutans [8]): Active; Activity (Streptococcus mutans [9]): Active; Activity (Streptococcus mutans [10]): inactive; inhibition (Actinomyces naeslundii [15]): Active; Activity (Candida albicans [11]): Active; Activity (Actinomyces naeslundii [16]): Active; Activity (Candida albicans [12]): Dose-dependent effect |
| CCC(C)[C@@H]1NC(=O)[C@H](Cc2ccccc2)NC1=O (stereo partly specified) | Non-Toxic | – | – | – | inactive | inactive | – | inactive | – | – |
| CC(C)C[C@@H]1NC(=O)[C@@H](CC(C)C)NC1=O | Non-Toxic | – | – | – | inactive | inactive | – | inactive | – | – |
| O=C1CNC(=O)[C@H](CCC(=O)OCc2ccccc2)N1 | Non-Toxic | – | – | – | inactive | inactive | – | inactive | – | – |
| O=C1N[C@H](COCc2ccccc2)C(=O)N[C@H]1COCc1ccccc1 | Non-Toxic | – | – | – | inactive | inactive | – | inactive | – | – |
| CC(C)C[C@@H]1NC(=O)[C@@H]2CCCN2C1=O | Non-Toxic | – | – | – | inactive | inactive | – | inactive | – | MIC (Enterococcus faecalis): 12.5 µg/mL (≈ 59.4 µM) |
| CC(C)C[C@@H]1NC(=O)[C@H](CCCN(C(=N)N)[N+](=O)[O-])NC1=O | Non-Toxic | – | – | – | inactive | inactive | – | inactive | – | – |
| O=C1N[C@H](Cc2ccccc2)C(=O)N[C@H]1Cc1ccc(OCc2ccccc2)cc1 | Non-Toxic | > 192 | > 192 | > 192 | inactive | inactive | inactive | Active | > 192 | growth inhibition (GI) (Candida albicans [5]): Non-Toxic; Activity (Candida albicans [6]): inactive; Activity (Candida albicans [7]): Active; inhibition (Actinomyces naeslundii [13]): Active; inhibition (Actinomyces naeslundii [14]): inactive; Activity (Streptococcus mutans [8]): Active; Activity (Streptococcus mutans [9]): Active; Activity (Streptococcus mutans [10]): inactive; inhibition (Actinomyces naeslundii [15]): Active; Activity (Candida albicans [11]): Active; Activity (Actinomyces naeslundii [16]): Active; Activity (Candida albicans [12]): Dose-dependent effect |
| CC(C)C[C@@H]1NC(=O)[C@H](C(C)C)NC1=O | Non-Toxic | – | – | – | inactive | inactive | – | inactive | – | – |
| C[C@H]1NC(=O)[C@@H](Cc2ccc(OCc3ccccc3)cc2)NC1=O | Non-Toxic | – | – | – | inactive | inactive | – | inactive | – | – |
| CC(C)[C@@H]1NC(=O)[C@H](Cc2ccccc2)NC1=O | Non-Toxic | – | – | – | inactive | inactive | – | inactive | – | – |
